For this experiment, the target named is T1, SARS-CoV-2 3CL^pro (Severe acute respiratory syndrome coronavirus 2, UniProt P0DTD1).
T1 construct: gene rep
Description: fluorogenic peptide cleavage assay, continuous. It is filed as biochemical.

On to `COc1c(-c2ccc(O)c(O)c2)oc2cc(O)cc(O)c2c1=O` [3-O-methylquercetin], for which the midpoint of inhibition, the IC50, lay at 43.9 µM.
